# Results taken from patent US9963445B2, “Chemical compounds” (SYNGENTA PARTICIPATIONS AG, priority 2013, dated 2018).
# Key:
# Type in all cases: in vivo
# [1] = tested on: Abutilon theophrasti; assay: Pre-emergence herbicidal activity, glasshouse pot test; conditions: pre-emergence spray, rate 1000 g/ha, evaluated after 13 days, scale 0-5
# Procedure, shortened: (§1)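 Damage score 0–5 (5 = total damage) read 13 d after spraying. Pots sown, sprayed pre-emergence at day 1 with aqueous spray from acetone/water 50:50 + 0.5% Tween 20 formulation; glasshouse 24/16 °C, 14 h light, 65% RH.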
# [2] = tested on: Alopecurus myosuroides; assay: as above; conditions: pre-emergence spray, rate 1000 g/ha, evaluated after 13 days, scale 0-5
# Procedure, shortened: as §1
# [3] = tested on: Amaranthus retroflexus; assay: as above; conditions: pre-emergence spray, rate 1000 g/ha, evaluated after 13 days, scale 0-5
# Procedure, shortened: as §1
# [4] = tested on: Echinochloa crus-galli; assay: as above; conditions: pre-emergence spray, rate 1000 g/ha, evaluated after 13 days, scale 0-5
# Procedure, shortened: as §1
# [5] = tested on: Setaria faberi; assay: as above; conditions: pre-emergence spray, rate 1000 g/ha, evaluated after 13 days, scale 0-5
# Procedure, shortened: as §1
# [6] = tested on: zea mays; assay: as above; conditions: pre-emergence spray, rate 1000 g/ha, evaluated after 13 days, scale 0-5
# Procedure, shortened: as §1
# [7] = tested on: Abutilon theophrasti; assay: Post-emergence herbicidal activity, glasshouse pot test; parameters: key: 0 = no damage to plant, 5 = total damage to plant; conditions: Application post-emergence, rate 1000 g/ha, evaluated after 13 days
# Procedure, shortened: (§2)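 After 8 days of glasshouse growth at 24/16 °C day/night, potted plants receive a foliar spray of the formulated compound (0.5% Tween 20 in acetone/water). They are then watered twice daily under unchanged conditions, and phytotoxicity is scored 0–5 after 13 days.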
# [8] = tested on: Alopecurus myosuroides; assay: as above; parameters: key: 0 = no damage to plant, 5 = total damage to plant; conditions: Application post-emergence, rate 1000 g/ha, evaluated after 13 days
# Procedure, shortened: as §2
# [9] = tested on: Amaranthus retroflexus; assay: as above; parameters: key: 0 = no damage to plant, 5 = total damage to plant; conditions: Application post-emergence, rate 1000 g/ha, evaluated after 13 days
# Procedure, shortened: as §2
# [10] = tested on: Echinochloa crus-galli; assay: as above; parameters: key: 0 = no damage to plant, 5 = total damage to plant; conditions: Application post-emergence, rate 1000 g/ha, evaluated after 13 days
# Procedure, shortened: as §2
# [11] = tested on: Setaria faberi; assay: as above; parameters: key: 0 = no damage to plant, 5 = total damage to plant; conditions: Application post-emergence, rate 1000 g/ha, evaluated after 13 days
# Procedure, shortened: as §2
# [12] = tested on: zea mays; assay: as above; parameters: key: 0 = no damage to plant, 5 = total damage to plant; conditions: Application post-emergence, rate 1000 g/ha, evaluated after 13 days
# Procedure, shortened: as §2
structure (smiles),measurement,setting,value
COC1=C(C)C(O)N(c2cc(C(F)(F)F)c(-c3cnc(OC)nc3)cn2)C1=O (stereo not drawn) [AI14],"ABUTH damage score, application pre-emergence",[1],1
same,"ALOMY damage score, application pre-emergence",[2],2
same,"AMARE damage score, application pre-emergence",[3],5
same,"ECHCG damage score, application pre-emergence",[4],2
same,"SETFA damage score, application pre-emergence",[5],3
same,"ZEAMX damage score, application pre-emergence",[6],1
same,ABUTH herbicidal damage score,[7],5
same,ALOMY herbicidal damage score,[8],4
same,AMARE herbicidal damage score,[9],5
same,ECHCG herbicidal damage score,[10],5
same,SETFA herbicidal damage score,[11],5
same,ZEAMX herbicidal damage score,[12],3
COC1=C(C)C(O)N(c2cc(C(F)(F)F)c(OC)cn2)C1=O (stereo not drawn) [AI15],"ABUTH damage score, application pre-emergence",[1],2
same,"ALOMY damage score, application pre-emergence",[2],4
same,"AMARE damage score, application pre-emergence",[3],5
same,"ECHCG damage score, application pre-emergence",[4],4
same,"SETFA damage score, application pre-emergence",[5],5
same,"ZEAMX damage score, application pre-emergence",[6],3
same,ABUTH herbicidal damage score,[7],5
same,ALOMY herbicidal damage score,[8],5
same,AMARE herbicidal damage score,[9],5
same,ECHCG herbicidal damage score,[10],5
same,SETFA herbicidal damage score,[11],5
same,ZEAMX herbicidal damage score,[12],4
COC1=C(C)C(O)N(c2cc(C(F)(F)Cl)ccn2)C1=O (stereo not drawn) [AI16],"ABUTH damage score, application pre-emergence",[1],1
same,"ALOMY damage score, application pre-emergence",[2],3
same,"AMARE damage score, application pre-emergence",[3],5
same,"ECHCG damage score, application pre-emergence",[4],5
same,"SETFA damage score, application pre-emergence",[5],5
same,"ZEAMX damage score, application pre-emergence",[6],2
same,ABUTH herbicidal damage score,[7],5
same,ALOMY herbicidal damage score,[8],4
same,AMARE herbicidal damage score,[9],5
same,ECHCG herbicidal damage score,[10],5
same,SETFA herbicidal damage score,[11],5
same,ZEAMX herbicidal damage score,[12],3
COC1=C(C)C(O)N(c2cc(C(C)F)ccn2)C1=O (stereo not drawn) [AI17],"ABUTH damage score, application pre-emergence",[1],5
same,"ALOMY damage score, application pre-emergence",[2],4
same,"AMARE damage score, application pre-emergence",[3],5
same,"ECHCG damage score, application pre-emergence",[4],5
same,"SETFA damage score, application pre-emergence",[5],5
same,"ZEAMX damage score, application pre-emergence",[6],4
same,ABUTH herbicidal damage score,[7],5
same,ALOMY herbicidal damage score,[8],5
same,AMARE herbicidal damage score,[9],5
same,ECHCG herbicidal damage score,[10],5
same,SETFA herbicidal damage score,[11],5
same,ZEAMX herbicidal damage score,[12],3
CCOC(=O)c1cnc(N2C(=O)C(OC)=C(C)C2O)cc1Cl (stereo not drawn) [AI19],"ABUTH damage score, application pre-emergence",[1],0
same,"ALOMY damage score, application pre-emergence",[2],1
same,"AMARE damage score, application pre-emergence",[3],2
same,"ECHCG damage score, application pre-emergence",[4],2
same,"SETFA damage score, application pre-emergence",[5],1
same,"ZEAMX damage score, application pre-emergence",[6],0
same,ABUTH herbicidal damage score,[7],4
same,ALOMY herbicidal damage score,[8],1
same,AMARE herbicidal damage score,[9],5
same,ECHCG herbicidal damage score,[10],3
same,SETFA herbicidal damage score,[11],5
same,ZEAMX herbicidal damage score,[12],1
CCc1cc(N2C(=O)C(OC)=C(C)C2O)ncc1Br (stereo not drawn) [AI22],"ABUTH damage score, application pre-emergence",[1],1
same,"ALOMY damage score, application pre-emergence",[2],3
same,"AMARE damage score, application pre-emergence",[3],5
same,"ECHCG damage score, application pre-emergence",[4],4
same,"SETFA damage score, application pre-emergence",[5],2
same,"ZEAMX damage score, application pre-emergence",[6],1
same,ABUTH herbicidal damage score,[7],4
same,ALOMY herbicidal damage score,[8],4
same,AMARE herbicidal damage score,[9],5
same,ECHCG herbicidal damage score,[10],5
same,SETFA herbicidal damage score,[11],5
same,ZEAMX herbicidal damage score,[12],1
COC1=C(C)C(O)N(c2cc(F)ccn2)C1=O (stereo not drawn) [AI23],"ABUTH damage score, application pre-emergence",[1],1
same,"ALOMY damage score, application pre-emergence",[2],3
same,"AMARE damage score, application pre-emergence",[3],5
same,"ECHCG damage score, application pre-emergence",[4],5
same,"SETFA damage score, application pre-emergence",[5],4
same,"ZEAMX damage score, application pre-emergence",[6],1
same,ABUTH herbicidal damage score,[7],5
same,ALOMY herbicidal damage score,[8],5
same,AMARE herbicidal damage score,[9],5
same,ECHCG herbicidal damage score,[10],5
same,SETFA herbicidal damage score,[11],5
same,ZEAMX herbicidal damage score,[12],3
COC1=C(C)C(O)N(c2ccc(C(=O)NC(C)(C)C)cn2)C1=O (stereo not drawn) [AI24],"ABUTH damage score, application pre-emergence",[1],4
same,"ALOMY damage score, application pre-emergence",[2],3
same,"AMARE damage score, application pre-emergence",[3],5
same,"ECHCG damage score, application pre-emergence",[4],4
same,"SETFA damage score, application pre-emergence",[5],4
same,"ZEAMX damage score, application pre-emergence",[6],1
same,ABUTH herbicidal damage score,[7],4
same,ALOMY herbicidal damage score,[8],4
same,AMARE herbicidal damage score,[9],5
same,ECHCG herbicidal damage score,[10],5
same,SETFA herbicidal damage score,[11],5
same,ZEAMX herbicidal damage score,[12],4
COC1=C(C)C(O)N(c2ccc(C(=O)NC(C)(C)C#N)cn2)C1=O (stereo not drawn) [AI25],"ABUTH damage score, application pre-emergence",[1],4
same,"ALOMY damage score, application pre-emergence",[2],4
same,"AMARE damage score, application pre-emergence",[3],5
same,"ECHCG damage score, application pre-emergence",[4],3
same,"SETFA damage score, application pre-emergence",[5],4
same,"ZEAMX damage score, application pre-emergence",[6],2
same,ABUTH herbicidal damage score,[7],5
same,ALOMY herbicidal damage score,[8],5
same,AMARE herbicidal damage score,[9],5
same,ECHCG herbicidal damage score,[10],5
same,SETFA herbicidal damage score,[11],5
same,ZEAMX herbicidal damage score,[12],3
COC1=C(C)C(O)N(c2ccc(NC(=O)C(C)(C)C)cn2)C1=O (stereo not drawn) [AI26],"ABUTH damage score, application pre-emergence",[1],5
same,"ALOMY damage score, application pre-emergence",[2],4
same,"AMARE damage score, application pre-emergence",[3],5
same,"ECHCG damage score, application pre-emergence",[4],5
same,"SETFA damage score, application pre-emergence",[5],5
same,"ZEAMX damage score, application pre-emergence",[6],2
same,ABUTH herbicidal damage score,[7],5
same,ALOMY herbicidal damage score,[8],5
same,AMARE herbicidal damage score,[9],5
same,ECHCG herbicidal damage score,[10],5
same,SETFA herbicidal damage score,[11],5
same,ZEAMX herbicidal damage score,[12],5
COC1=C(C)C(O)N(c2ccc(N)cn2)C1=O (stereo not drawn) [AI28],"ABUTH damage score, application pre-emergence",[1],2
same,"ALOMY damage score, application pre-emergence",[2],1
same,"AMARE damage score, application pre-emergence",[3],1
same,"ECHCG damage score, application pre-emergence",[4],0
same,"SETFA damage score, application pre-emergence",[5],1
same,"ZEAMX damage score, application pre-emergence",[6],1
same,ABUTH herbicidal damage score,[7],1
same,ALOMY herbicidal damage score,[8],1
same,AMARE herbicidal damage score,[9],1
same,ECHCG herbicidal damage score,[10],1
same,SETFA herbicidal damage score,[11],1
same,ZEAMX herbicidal damage score,[12],1
COC1=C(C)C(O)N(c2ccc([N+](=O)[O-])cn2)C1=O (stereo not drawn) [AI29],"ABUTH damage score, application pre-emergence",[1],0
same,"ALOMY damage score, application pre-emergence",[2],1
same,"AMARE damage score, application pre-emergence",[3],2
same,"ECHCG damage score, application pre-emergence",[4],0
same,"SETFA damage score, application pre-emergence",[5],1
same,"ZEAMX damage score, application pre-emergence",[6],0
same,ABUTH herbicidal damage score,[7],0
same,ALOMY herbicidal damage score,[8],0
same,AMARE herbicidal damage score,[9],0
same,ECHCG herbicidal damage score,[10],0
same,SETFA herbicidal damage score,[11],0
same,ZEAMX herbicidal damage score,[12],1
COC1=C(C)C(O)N(c2cc(C(C)C)c(C(=O)NC(C)(C)C#N)cn2)C1=O (stereo not drawn) [AI31],"ABUTH damage score, application pre-emergence",[1],2
same,"ALOMY damage score, application pre-emergence",[2],3
same,"AMARE damage score, application pre-emergence",[3],5
same,"ECHCG damage score, application pre-emergence",[4],3
same,"SETFA damage score, application pre-emergence",[5],2
same,"ZEAMX damage score, application pre-emergence",[6],2
same,ABUTH herbicidal damage score,[7],5
same,ALOMY herbicidal damage score,[8],4
same,AMARE herbicidal damage score,[9],5
same,ECHCG herbicidal damage score,[10],5
same,SETFA herbicidal damage score,[11],5
same,ZEAMX herbicidal damage score,[12],2
